The values below come from paper PMC5991783, “Discovery and Optimization of Indolyl-Containing 4-Hydroxy-2-Pyridone Type II DNA Topoisomerase Inhibitors Active against Multidrug Resistant Gram-negative Bacteria” (Journal of Medicinal Chemistry, 2018).

One series has as its system E. coli^WT (ATCC 25922). The series can be described thus: Mouse septicemia model. Format: in vivo, CD-1 mice. Conditions: 96 h.
The test system of series [1] is Acinetobacter baumannii ATCC BAA-747. The series can be described thus: MIC, wild-type A. baumannii. Format: cell-based. The following applies: Acinetobacter baumannii, ATCCBAA747; A. baumannii ATCC BAA-747; read-out: MIC A. bau^WT.
For another series, the system named is E. coli ATCC 25922. The series can be described thus: MIC, wild-type E. coli ATCC 25922. Format: cell-based, Escherichia coli. Conditions: Escherichia coli, ATCC25922; E. coli ATCC 25922; read-out: MIC E. coli^WT.
Series [2] in a line: Mouse plasma protein binding, equilibrium dialysis.
Another series concerns E. coli ELZ4251. The series can be described thus: MIC, clinical isolate E. coli ELZ4251. Format: cell-based. The following applies: Escherichia coli, read-out: MIC E. coli^R2.
In series [3] the test system is Klebsiella pneumoniae ATCC 35657. The series can be described thus: MIC, wild-type K. pneumoniae. The format is cell-based. The following applies: Klebsiella pneumoniae, ATCC35657; K. pneumoniae ATCC 35657; read-out: MIC K. pneu^WT.
Series [4] is described as follows: Pharmacokinetics in CD-1 mice. Conditions: CD-1, mouse, plasma.
In another series the target is E. coli DNA gyrase (Escherichia coli, UniProt P0AES4+P0AES6). The experiment in a line: biochemical. Conditions: E. coli DNA gyrase IC50.
In another series the target is human topoisomerase II (Homo sapiens, UniProt P11388). The experiment in a line: Human topoisomerase II decatenation assay. Format: biochemical. The following applies: Supplemental Table 1; read-out: Human Topo II IC50.
The test system of a further series is E. coli SKM18. The experiment in a line: microbe, parasite or virus in culture. The format is cell-based, Escherichia coli.
Another series has as its system A. baumannii MMX2240. The experiment in a line: MIC, fluoroquinolone resistant A. baumannii. Format: cell-based, Acinetobacter baumannii. The following applies: Acinetobacter baumannii.
Series [5] has as its system panel of 12 A. baumannii isolates. The series can be described thus: Susceptibility testing, 12 A. baumannii isolates. Format: cell-based, Acinetobacter baumannii. Conditions: 12 strains.
The subject of series [6] is panel of 12 E. coli isolates. The experiment in a line: Susceptibility testing, 12 E. coli isolates. Format: cell-based, Escherichia coli. Conditions: 12 strains.
The next series relates to E. coli 1609. The series can be described thus: MIC, wild-type E. coli 1609. The format is cell-based. The following applies: Escherichia coli, read-out: MIC E. coli^WT2.
In the next series the test system is E. coli SKM11. Format: cell-based, Escherichia coli.
Series [7] addresses E. coli DNA gyrase^SD-LY (GyrA S83L, D87Y) (Escherichia coli, UniProt P0AES4+P0AES6, D87Y/S83L). The format is biochemical. Conditions: IC50 ratio.
A further series in a line: in vivo. Conditions: CD-1, mouse, iv, 3 mg/kg.

Structures are written as SMILES. pIC50: −log10 of the molar value. Converted amounts (≈) assume the structure as drawn. Marks after values point to notes of the source that are not given here.

Sequence of human topoisomerase II (P11388 whole entry): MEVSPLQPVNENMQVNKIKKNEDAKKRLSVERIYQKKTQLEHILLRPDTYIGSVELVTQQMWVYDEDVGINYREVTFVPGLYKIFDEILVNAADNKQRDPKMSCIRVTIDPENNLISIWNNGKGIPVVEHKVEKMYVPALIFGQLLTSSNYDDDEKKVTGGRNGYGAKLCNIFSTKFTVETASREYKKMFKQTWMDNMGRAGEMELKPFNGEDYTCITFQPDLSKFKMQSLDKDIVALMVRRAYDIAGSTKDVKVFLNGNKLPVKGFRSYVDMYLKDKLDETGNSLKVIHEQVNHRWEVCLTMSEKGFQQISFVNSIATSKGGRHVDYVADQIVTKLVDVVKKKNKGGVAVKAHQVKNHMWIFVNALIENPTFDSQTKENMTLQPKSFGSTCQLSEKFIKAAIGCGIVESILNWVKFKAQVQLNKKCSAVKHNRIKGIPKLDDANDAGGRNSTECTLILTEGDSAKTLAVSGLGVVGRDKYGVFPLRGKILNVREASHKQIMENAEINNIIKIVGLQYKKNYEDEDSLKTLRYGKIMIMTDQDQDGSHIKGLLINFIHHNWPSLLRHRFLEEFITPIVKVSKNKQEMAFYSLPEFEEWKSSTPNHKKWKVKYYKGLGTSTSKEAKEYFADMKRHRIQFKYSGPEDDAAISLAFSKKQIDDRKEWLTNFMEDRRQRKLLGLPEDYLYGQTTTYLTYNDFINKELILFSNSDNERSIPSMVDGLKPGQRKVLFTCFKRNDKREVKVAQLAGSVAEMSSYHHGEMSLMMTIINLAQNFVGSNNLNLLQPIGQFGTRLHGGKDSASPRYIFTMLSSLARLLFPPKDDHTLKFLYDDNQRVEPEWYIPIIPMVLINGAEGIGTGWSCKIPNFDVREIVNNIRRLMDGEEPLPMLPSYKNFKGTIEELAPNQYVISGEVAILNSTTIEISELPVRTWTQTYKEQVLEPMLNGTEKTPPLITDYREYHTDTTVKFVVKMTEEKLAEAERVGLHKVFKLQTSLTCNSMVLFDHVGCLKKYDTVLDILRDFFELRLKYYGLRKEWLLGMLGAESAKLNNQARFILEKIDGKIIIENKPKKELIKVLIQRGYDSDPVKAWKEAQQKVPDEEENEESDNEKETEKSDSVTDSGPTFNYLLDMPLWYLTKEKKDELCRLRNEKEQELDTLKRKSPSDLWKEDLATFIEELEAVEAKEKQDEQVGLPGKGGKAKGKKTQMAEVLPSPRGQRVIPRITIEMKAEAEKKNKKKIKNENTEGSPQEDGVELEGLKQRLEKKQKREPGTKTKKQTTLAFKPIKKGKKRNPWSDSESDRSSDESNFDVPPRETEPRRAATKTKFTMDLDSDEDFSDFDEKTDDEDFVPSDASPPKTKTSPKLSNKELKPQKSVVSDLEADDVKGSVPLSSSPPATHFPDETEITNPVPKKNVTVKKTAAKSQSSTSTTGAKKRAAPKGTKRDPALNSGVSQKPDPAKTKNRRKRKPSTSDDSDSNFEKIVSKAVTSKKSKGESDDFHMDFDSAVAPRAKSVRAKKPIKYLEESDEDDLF

In the case of `CCC(C)NCc1cc2cc3c(cc2n1C)OCCc1c-3[nH]c(=O)c(C(=O)O)c1O.Cl` (centres unmarked) [Compound 6o, 10-((sec-Butylamino)methyl)-4-hydroxy-9-methyl-2-oxo-2,5,6,9-tetrahydro-1H-pyrido[2′,3′:4,5]oxepino[3,2-f]indole-3-carboxylic Acid Hydrochloride], the responders at 20 mg/kg in the series on E. coli^WT (ATCC 25922) (Mus musculus, iv, read-out: survival) turned out to be 100%. The MIC in series [1] was 1.6 µg/mL; in the series on E. coli ATCC 25922 it was 0.78 µg/mL; in the series on E. coli ELZ4251, 2 µg/mL; in series [3] it was 1 µg/mL; in the series on E. coli SKM18 (Escherichia coli, SKM18, read-out: MIC E. coli^R1, E. coli SKM18), 0.78 µg/mL; in the series with A. baumannii MMX2240, 0.78 µg/mL. Also, in series [6] (Escherichia coli, read-out: E. coli MIC range), the MIC lay in the range of 0.12 to 1 µg/mL. The same molecule showed a fraction unbound at 1 μM in series [2] of 0.23. Moreover, the AUC(0-t) in series [4] (iv, 10 mg/kg, pH 8) stood at 3440 ng·h/mL. The clearance in series [4] (iv, 10 mg/kg, pH 8) was 48 mL/min/kg. In [4] (iv, 10 mg/kg, pH 8), the half-life was 2.1 h. The same molecule gave a bioavailability in series [4] (po) of 41%. For the same molecule, the pIC50 against E. coli DNA gyrase was 6.96; on human topoisomerase II, below 4.00. The “A. baumannii MIC90” value in series [5] (Mueller Hinton II broth) was 8 µg/mL. The MIC90 in [5] (Acinetobacter baumannii, Mueller Hinton II broth, read-out: A. baumannii MIC90) lay within 8 to 16 µg/mL; in [6] (Escherichia coli, Mueller Hinton II broth, read-out: E. coli MIC90), 0.5 to 1 µg/mL. The MIC50 in series [5] (Acinetobacter baumannii) stood at 2 µg/mL; in series [6] (Escherichia coli), 1 µg/mL. Moreover, the “E. coli MIC90” value in series [6] (Mueller Hinton II broth) stood at 1 µg/mL.

As to `O=C(O)c1cn(C2CC2)c2cc(N3CCNCC3)c(F)cc2c1=O` [ciprofloxacin], the MIC was 0.012 µg/mL (≈ 0.0362 µM) in the series on E. coli ATCC 25922 and 0.024 µg/mL (≈ 0.0724 µM) in the series with E. coli 1609. Besides, in the series with E. coli SKM18 (E. coli SKM18), the “MIC E. coli^R1” value is above 250 µg/mL. Further, in the series on E. coli SKM18 (additional Topo IV mutations, vs E. coli^R3), the “increase in MIC against E. coli^R1” value is reported as around 250 fold. Besides, the “increase in MIC against E. coli^R3” value with E. coli SKM11 was 32 fold. Besides, the “reduction in activity against DNA gyrase^SD-LY compared to DNA gyrase^WT” value in series [7] is reported as “greater than 13 fold”.

As for `COc1c(N2C[C@@H]3CCCN[C@@H]3C2)c(F)cc2c(=O)c(C(=O)O)cn(C3CC3)c12` [moxifloxacin, reference compound], the survival with E. coli^WT (ATCC 25922) (neutropenic mice, E. coli^WT 100 × LD50, 3 mg/kg at 1 and 5 h postinfection (b.i.d.)) is given as 100 ^n %. Besides, the AUC(0-t) at 24 h in “in vivo” stood at 640 ng·h/mL.
